According to US7994291B2, “Human E3α ubiquitin ligase family” (Amgen Inc., priority 2000, dated 2011):
“Also recorded” adds a separate entry of the source.

Experiments:
[1] = tested on: differentiated C2C12 cells; assay: 125I-ubiquitin conjugation of cellular proteins in cytokine-treated differentiated C2C12 myotubes; type: cell-based, murine
Protocol: To further substantiate the enzymatic activity of huE3αI and huE3αII, ubiquitin conjugation to endogenous cellular proteins were measured in cultured muscle cell lines. Cultures of murine C2C12 or rat L6 myotube cells (ATCC accession nos. CRL-1772 and CRL-1458, respectively) were transfected with huE3αI or huE3αII full length cDNA under control of the CMV promoter using Lipofectamine 2000 Reagent (Gibco). Mock transfection with the pcDNA3.1 vector without a cDNA insert was performed as a control. Cell lysates were prepared as described above for the 293T cells and the resulting supernatants were used in ubiquitin conjugation reactions. For each reaction, 30 μg of C2C12or L6 myotube cell lysate was incubated with ^125I-ubiquitin (0.15 mg/ml, approximately ×10^7 cpm) in a total volume of 25-30 μl in a buffer containing 50 mM Tris, pH 8.0, 2 mM DTT, 5 mM MgCl2, 2 mM adenosine 5′-[-thio]triphosphate (ATP S), 50 μg/ml ubiquitin aldehyde, 20 μg/ml MG132 and protease inhibitor cocktail (Sigma P8340) at 37° C. for 30 minutes. Reactions were stopped by adding sample buffer and were subjected to 12% SDS PAGE. The gels were then dried and autoradiographed.
C2C12 cells were differentiated for 5 days to allow formation of myotubes. The differentiated myotubes were treated with 2 ng/ml of IL-6 for 5, 24 or 48 hours. […]

muE3αII = assay: Northern blot of muE3αII mRNA in cytokine-treated C2C12 myotubes; type: cell-based, mouse; settings: 10 ng/ml cytokine for 3 days and 5 days, differentiated C2C12 myotubes vs untreated
Protocol: Treatment with the proinflammatory cytokines, TNFα and IL-6, caused the induction of […] in C2C12 myotube cultures. C2C12 myoblasts were cultured in 100-mm dishes in an atmosphere of 5% CO2 at 37° C. in DMEM supplemented with 10% FBS and L-glutamine to reach 100% confluence. Myoblast differentiation was induced with DMEM supplemented with 2% horse serum and L-glutamine for 96 hours. Differentiated myotubes were then treated with TNFα (10 ng/ml; R&D Systems cat no. 210-TA) or IL-6 (10 ng/ml; R&D Systems cat no. 206-IL) for 3 days and 5 days.
After the 3 or 5 day incubation, RNA from differentiated C2C12 cultures was isolated with Trizol Reagent and Northern blot analysis was carried out as described in Example 11. Isolated RNA from untreated C2C12 cultures were used as a control. The blots were hybridized with a ^32P-labeled cDNA probes specific for muE3αI (lower panels) and muE3αII (upper panels). The probes were generated as described in Example 12.

E3α = assay: 125I-ubiquitin conjugation to endogenous muscle proteins in Fraction II of muscle extracts from YAH tumor-bearing rats, with E3α inhibitor; type: biochemical, rat; settings: 10 mM inhibitor, 20 μg/ml bestatin, 37° C., 20 minutes, Fraction II of gastrocnemius muscle extract
Protocol: The rate of ubiquitin conjugation of the endogenous muscle proteins were carried out as described in Example 10 using the skeletal muscles from the YAH tumor-bearing rats. The frozen gastrocnemius muscles collected (via dissection at sacrifice) from 6 tumor-bearing rats were combined. The muscle extracts (20% weight/volume) were prepared by homogenizing the muscles in a buffer containing 50 mM Tris HCl (pH 8.00), 5 mM MgCl2, 2 mM DTT, protease inhibitor cocktail (Sigma P8340) and 10% glycerol. The homogenates were then centrifuged at 40,000 g for 1 hr and the resulting supernatants were used as crude muscle extracts.
For some assays, the crude muscle extracts were fractionated further by chromatography on DEAE-cellulose (Whatman, Clifton, N.J.) to remove endogenous ubiquitin as described by Soloman et al. (Proc. natl. Acad. Sci. U.S.A., 95: 12602-7, 1998). The bound material Fraction II, which contained most of the ubiquitin conjugating enzymes were eluted with 50 mM Tris, pH 8.0 containing 0.5M NaCl and 1 mM DTT. Both crude extracts and Fraction II were dialyzed prior to use for ubiquitination assay against buffer containing 20 mM Tris, pH 8.0, 2 mM DTT, 5 mM MgCl2, and 10% glycerol and stored at […] until use. Crude muscle extracts were used for ubiquitin conjugation to ^125I-α-lactalbumin. […]

Molecule	ubiquination of cellular proteins ([1]; 2 ng/ml IL-6 for 5, 24 or 48 hours, detectable 5 hours post-treatment, time dependent)	expression of muE3αII mRNA (muE3αII)	125I-ubiquitin conjugation of cellular proteins ([1]; TNFα 0, 3, 6, 10, 20 ng/ml for one hour)	effect on accelerated muscle protein ubiquitination of tumor-bearing rats (E3α)
IL-6: proinflammatory cytokine (R&D Systems cat no. 206-IL)	marked increase	markedly increased	–	–
TNFα	–	markedly increased	dose dependent increase	–
COC(=O)[C@@H](N)CCCNC(=N)N [arginine methylester, arginine methyl ester]	–	–	–	virtually abolished the accelerated ubiquitination activity; also recorded: virtually abolished all the increased ubiquitination activities
